One assay deals with A. baumannii. Description: MIC, broth microdilution. The assay is classed as cell-based, Acinetobacter baumannii. The following applies: Acinetobacter baumannii, ATCC17978; A. baumannii ATCC 17978; read-out: Minimum inhibitory concentration. The source says:
(§1) Bacterial strains and growth conditions and persister isolation: methicillin-resistant S. aureus (MRSA) strain MW2 BAA-1707, vancomycin-resistant S. aureus strain VRS 1, 11 clinical S. aureus isolates, 8 clinical Enterococcus faecium isolates, Klebsiella pneumoniae WGLW2 (BEI Resources, Manassas, Va., USA), Acinetobacter baumannii ATCC 17978, Pseudomonas aeruginosa PA14, and Enterobacter aerogenes ATCC 13048 were used to test antimicrobial activity (See Table 1a). S. aureus and E. faecium strains were grown in tryptic soy broth (TSB) (BD, Franklin Lakes, N.J., USA) or brain-heart infusion (BHI) broth (BD, Franklin Lakes, N.J., USA), respectively at 37° C. at 225 rpm. K. pneumoniae, A. baumannii, P. aeruginosa, and E. aerogenes were grown in Luria Bertani (LB) broth (BD, Franklin Lakes, N.J., USA).
(§2) To test the bacterial MICs for compounds described herein, the total volume in each well was 100 μl of test compounds and bacterial cells in MH broth. […] The bacterial concentration was adjusted to an initial OD600 of 0.03. After incubation at 35° C. for 18 hrs, the absorbance was measured at 595 nm in accordance with CLSI document M07-A8. The MICs of antibiotics were determined by the standard microdilution method recommended by the Clinical and Laboratory Standards Institute.

For assay [1], the system named is Exponential-phase MRSA cells. In words: Killing kinetics assay. The assay is classed as cell-based, Staphylococcus aureus. The following applies: 10×MIC, result in words. The procedure:
Killing kinetics assay. An S. aureus overnight culture was diluted 1:10,000 in 25 ml fresh TSB in a 250 ml flask. In order to obtain exponential-phase cells, the diluted cell suspension was incubated at 37° C., with shaking at 225 rpm for 4 h until the OD600 nm was 0.4 (˜2×10^7 CFU/ml). 0.5 ml of the exponential phase cell culture was added to the wells of a 2 ml deep well assay block (Corning Costar 3960) containing 0.5 ml of pre-warmed TSB with twice the desired concentrations of compounds. The assay block was sealed with a gas-permeable Breathe-Easy membrane and incubated at 37° C. shaking at 225 rpm. At specific times, 50 μl samples were removed, serially diluted and spot-plated onto tryptic soy agar (TSA, BD) plates to enumerate the number of cells. These experiments were conducted in triplicate.
Colony forming unit counts of cells were measured by serial dilution and plating on TSA plates. The data points on the x-axis are below the level of detection (2×10^2 CFU/mL). Results are shown as means±s.d.; n=3.

Another assay deals with E. faecium. In words: MIC, broth microdilution. The assay is classed as cell-based, Enterococcus faecium. The following applies: for MIC: Enterococcus faecium; for susceptibility of E. faecium: result in words. In short, it runs like this: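 MIC by CLSI broth microdilution (M07-A8) in MH broth; E. aerogenes, K. pneumoniae and A. baumannii pre-grown in LB, E. faecium in BHI, at 37° C. Inoculum at initial OD600 0.03, incubated 18 hrs at 35° C., growth read as absorbance at 595 nm.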

In another assay the test system is E. aerogenes ATCC 13048. Description: MIC, broth microdilution. In kind it is cell-based, Enterobacter aerogenes. The following applies: Klebsiella aerogenes, ATCC13048; E. aerogenes ATCC 13048; read-out: Minimum inhibitory concentration.
From the text: as §1, §2

A further assay deals with P. aeruginosa. In words: MIC, broth microdilution. The following applies: Pseudomonas aeruginosa; P. aeruginosa PA14; read-out: Minimum inhibitory concentration. In kind it is cell-based, Pseudomonas aeruginosa.
From the text: as §1, §2

Assay [2] relates to S. aureus persister cells (stationary phase). In words: Persister killing assay. In kind it is cell-based, Staphylococcus aureus. The following applies: for eradication of persisters formed by S. aureus strain VRS1 and 11 clinical S. aureus strains: 10×MIC, 4 h; for viability of MW2 persister cells, single agent: 4 μg/ml CD437 or CD1530 or 10 μg/ml gentamicin alone; for time to complete eradication of MW2 persisters, combination: 4 μg/ml retinoid plus 10 μg/ml gentamicin; for bactericidal concentration against MRSA persisters: MRSA MW2 persisters. The procedure:
Persister killing assay. […] Persister cells of these 13 S. aureus strains were developed by growing cultures overnight to stationary phase at 37° C. at 225 rpm. The overnight cultures were washed three times with PBS and diluted to ˜10^7 CFU/ml with the same buffer, which is the same concentration as used in the killing kinetics assay described herein. 1 ml of the persister suspension containing appropriate concentrations of antibiotics was added to the wells of a 2 ml deep well assay block (Corning Costar 3960) and incubated at 37° C., with shaking at 225 rpm. At specific times, 50 μl samples were removed, serially diluted and spot-plated on TSA plates to enumerate the number of live cells. These experiments were conducted in triplicate.

The test system of the next assay is MRSA strain MW2. Description: Checkerboard assay (combination). In kind it is cell-based, Staphylococcus aureus. The following applies: for Fractional inhibitory concentration index (FICI): MRSA strain MW2, synergy FICI ≤ 0.5. The procedure:
Checkerboard assay (e.g., antibiotic synergy test): The antimicrobial or antifungal activity of a combination of a compound of present application with other agents was determined through a checkerboard assay. The checkerboard method for determining synergy of synthetic retinoids with conventional antibiotics can be conducted, for example, as previously described (See, e.g., Rajamuthiah, R. et al. A defensin from the model beetle Tribolium castaneum acts synergistically with telavancin and daptomycin against multidrug resistant Staphylococcus aureus. PLoS ONE 10, e0128576 (2015)) The compounds whose combinations were being tested were arrayed in serial concentrations, vertically for one compound and horizontally for the other compound in the same 96 well microplate. 2-fold serial dilutions of each retinoid were combined with 2-fold serial dilutions of each conventional antibiotic, which created an 8×8 matrix in a 96-well microtiter plate. The rest of the procedure involving addition of pathogen and measurement of growth was carried out as described for measurement of MIC.
The Fractional Inhibitory Concentration (FIC) index for two compounds, A and B, is defined by the following equation: FIC=((A/MIC^A)+(B/MIC^B)). MIC^A and NIC^B are MICs of compound A or B respectively. (A) is the lowest concentration of compound A in combination with compound B that inhibits growth of a pathogen and (B) is the lowest concentration of compound B that inhibits growth of a pathogen.
Optical densities at 600 nm were measured after 18 h of incubation at 37° C. The results represent three independent experiments.

Setting [3] is: E. faecium C68, read-out: Minimum inhibitory concentration.
Setting [4] is: E. faecium D14, read-out: Minimum inhibitory concentration.
Setting [5] is: E. faecium D24, read-out: Minimum inhibitory concentration.
The mark [6] stands for this setting: E. faecium D25, read-out: Minimum inhibitory concentration.
[7] abbreviates: E. faecium D29, read-out: Minimum inhibitory concentration.
Where [8] appears, read: E. faecium E007, read-out: Minimum inhibitory concentration.
[9] abbreviates: E. faecium WB213, read-out: Minimum inhibitory concentration.
Where [10] appears, read: E. faecium WC176, read-out: Minimum inhibitory concentration.
Setting [11] is: in combination with Ciprofloxacin.

Converted amounts (≈) assume the structure as drawn. Read-outs that look alike come from different tables or passages of the source.

For the compound `O=C(O)/C=C/c1ccc(-c2ccc(O)c(C34CC5CC(CC(C5)C3)C4)c2)cc1` [Adarotene, (2E)-3-(4′-Hydroxy-3′-tricyclo[3.3.1.13,7]dec-1-yl[1,1′-biphenyl]-4-yl)-2-propenoic acid], the MIC with A. baumannii was greater than 64 µg/mL; in the assay with E. faecium (setting [3]), 4 µg/mL (≈ 10.7 µM); in the assay on E. faecium (setting [4]) it was 4 µg/mL (≈ 10.7 µM); in the assay with E. faecium (setting [5]) it was 2 µg/mL (≈ 5.34 µM); in the assay with E. faecium (setting [6]), 4 µg/mL (≈ 10.7 µM); with E. faecium (setting [7]) it was 2 µg/mL (≈ 5.34 µM). For the same compound, the MIC is 4 µg/mL (≈ 10.7 µM) in the assay with E. faecium (setting [8]); 2 µg/mL (≈ 5.34 µM) in the assay with E. faecium (setting [9]); 4 µg/mL (≈ 10.7 µM) with E. faecium (setting [10]); greater than 64 µg/mL in the assay with E. aerogenes ATCC 13048; greater than 64 µg/mL in the assay on P. aeruginosa. Moreover, the killing kinetics entry in assay [1] is “fast killing kinetics”. Further, the “eradication of S. aureus strain MW2 persisters” value in assay [2] (8×MIC, result in words) is “did not”. The “eradication of persisters formed by S. aureus strain VRS1 and 11 clinical S. aureus strains” value (from here on “eradication of persisters formed”) in assay [2] (result in words) was “not”. Also, the interaction with gentamicin entry in the assay with MRSA strain MW2 (MRSA MW2, result in words) is listed as “significant synergistic antimicrobial activity”. Moreover, the “Fractional inhibitory concentration index (FICI)” value in the assay with MRSA strain MW2 (setting [11]) worked out at 0.75; in the assay on MRSA strain MW2 (in combination with Defensin 1), 1; in the assay with MRSA strain MW2 (in combination with Gentamicin), 0.5; with MRSA strain MW2 (in combination with Rifampicin), 1; in the assay with MRSA strain MW2 (in combination with Vancomycin) it was 1.016.

Consider `O=C(O)c1ccc2cc(-c3ccc(O)c(C45CC6CC(CC(C6)C4)C5)c3)ccc2c1` [CD437, 6-(4-hydroxy-3-tricyclo[3.3.1.13,7]dec-1-ylphenyl)-2-naphthalenecarboxylic acid], for which the MIC was greater than 64 µg/mL with A. baumannii; 1 µg/mL (≈ 2.51 µM) in the assay on E. faecium (setting [5]); 1 µg/mL (≈ 2.51 µM) in the assay with E. faecium (setting [6]); 1 µg/mL (≈ 2.51 µM) in the assay on E. faecium (setting [7]); 1 µg/mL (≈ 2.51 µM) with E. faecium (setting [9]); greater than 64 µg/mL in the assay with E. aerogenes ATCC 13048. Further, the MIC with P. aeruginosa was greater than 64 µg/mL. Also, the killing kinetics result in assay [1] is recorded as “fast killing kinetics”. Besides, the “susceptibility of E. faecium” value in the assay on E. faecium is “susceptible”. The “viability of MW2 persister cells, single agent” value in assay [2] was “did not significantly affect”. Besides, the “time to complete eradication of MW2 persisters, combination” value in assay [2] is no more than 3 h. Further, the “eradication of persisters formed” value in assay [2] (result in words) is “annihilated”. Moreover, the “bactericidal concentration against MRSA persisters” value in assay [2] was 8 µg/mL. Moreover, the “interaction with defensin 1” value in the assay with MRSA strain MW2 (MRSA MW2, result in words) is recorded as “synergism”. In addition, the interaction with gentamicin entry with MRSA strain MW2 (MRSA MW2, result in words) is on record as “significant synergistic antimicrobial activity”.

For `O=C(O)c1ccc(-c2ccc3cc(O)c(C45CC6CC(CC(C6)C4)C5)cc3c2)cc1` [CD1530, 4-(6-hydroxy-7-tricyclo[3.3.1.13,7]dec-1-yl-2-naphthalenyl)-benzoic acid], the MIC with A. baumannii is greater than 64 µg/mL; in the assay on E. faecium (setting [3]), 2 µg/mL (≈ 5.02 µM); in the assay with E. faecium (setting [4]) it was 2 µg/mL (≈ 5.02 µM); in the assay on E. faecium (setting [5]) it was 1 µg/mL (≈ 2.51 µM); in the assay with E. faecium (setting [6]), 1 µg/mL (≈ 2.51 µM); with E. faecium (setting [7]), 1 µg/mL (≈ 2.51 µM). Moreover, the MIC in the assay with E. faecium (setting [8]) is 2 µg/mL (≈ 5.02 µM); in the assay with E. faecium (setting [9]) it was 1 µg/mL (≈ 2.51 µM); in the assay on E. faecium (setting [10]) it was 2 µg/mL (≈ 5.02 µM); in the assay on E. faecium (E. faecium, (range given for E. faecium and E. faecalis), read-out: MIC), 2 to 4 µg/mL (≈ 5.02 to 10 µM); in the assay on E. aerogenes ATCC 13048, greater than 64 µg/mL; in the assay with P. aeruginosa, greater than 64 µg/mL. In addition, the killing kinetics result in assay [1] was “fast killing kinetics”. In addition, in the assay with E. faecium, the “susceptibility of E. faecium” value is “susceptible”. In addition, the “viability of MW2 persister cells, single agent” value in assay [2] is “did not significantly affect”. Also, the “time to complete eradication of MW2 persisters, combination” value in assay [2] is given as no more than 4 h. The “eradication of persisters formed” value in assay [2] (result in words) is recorded as “annihilated”. In assay [2], the “bactericidal concentration against MRSA persisters” value was 8 µg/mL. Besides, in the assay on MRSA strain MW2 (MRSA MW2, result in words), the interaction with gentamicin result is recorded as “significant synergistic antimicrobial activity”. For the same compound, the “Fractional inhibitory concentration index (FICI)” value with MRSA strain MW2 (setting [11]) is recorded as 0.75; in the assay on MRSA strain MW2 (in combination with Defensin 1), 1; in the assay with MRSA strain MW2 (in combination with Gentamicin), 0.5; with MRSA strain MW2 (in combination with Rifampicin), 0.75; in the assay on MRSA strain MW2 (in combination with Vancomycin) it was 1.

The values are drawn from patent publication US11707442B2, “Antibacterial and antifungal compounds” (The General Hospital Corporation, priority 2015, dated 2023).
